Experiments:
Assay type in all cases: in vivo
[1] = tested on: barnyardgrass (Echinochloa crus-galli); assay: Test D flooded paddy test, visual plant response rating; conditions: 250 g ai/ha, scale 0 to 100 (0 no effect, 100 complete control), 13 to 15 d
How it was run: (§1)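 Greenhouse paddy assay scored on a 0–100 visual scale after 13 to 15 d, where 100 means complete control and a dash marks no result; dosing was into 3 cm floodwater over 2-leaf plants.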

[2] = tested on: sedge umbrella (small-flower umbrella sedge, Cyperus difformis); assay: as above; conditions: 250 g ai/ha, scale 0 to 100 (0 no effect, 100 complete control), 13 to 15 d
How it was run: as §1

[3] = tested on: duck salad (Heteranthera limosa); assay: as above; conditions: 250 g ai/ha, scale 0 to 100 (0 no effect, 100 complete control), 13 to 15 d
How it was run: as §1

rice (Oryza sativa) = assay: as above; conditions: 250 g ai/ha, scale 0 to 100 (0 no effect, 100 complete control), 13 to 15 d
How it was run: as §1

[4] = tested on: Italian ryegrass (Lolium mutiflorum); assay: Test C postemergence, visual plant response rating
How it was run: (§2)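 Seeds sown in a loam–sand blend got a directed preemergence soil spray; postemergence plants (2–10 cm, one- to two-leaf stage) were sprayed with compound in a non-phytotoxic solvent plus surfactant. Injury was scored visually against untreated controls after about 10 d in a greenhouse on a 0–100 scale (100 = complete control).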

[5] = tested on: barnyardgrass (Echinochloa crus-galli); assay: Test C postemergence, visual plant response rating
How it was run: as §2

[6] = tested on: blackgrass (Alopecurus myosuroides); assay: Test C postemergence, visual plant response rating
How it was run: as §2

kochia (Bassia scoparia) [7] = assay: Test C postemergence, visual plant response rating
How it was run: as §2

[8] = tested on: galium (catchweed bedstraw, Galium aparine); assay: Test C postemergence, visual plant response rating
How it was run: as §2

corn (Zea mays) = assay: Test C postemergence, visual plant response rating
How it was run: as §2

[9] = tested on: wheat (Triticum aestivum); assay: Test C postemergence, visual plant response rating
How it was run: as §2

[10] = tested on: foxtail, giant (giant foxtail, Setaria faberi); assay: Test C postemergence, visual plant response rating
How it was run: as §2

[11] = tested on: ragweed (common ragweed, Ambrosia artemisiifolia); assay: Test C postemergence, visual plant response rating
How it was run: as §2

[12] = tested on: pigweed (Amaranthus retroflexus); assay: Test C postemergence, visual plant response rating
How it was run: as §2

[13] = tested on: Italian ryegrass (Lolium mutiflorum); assay: Test C preemergence, visual plant response rating
How it was run: as §2

[14] = tested on: barnyardgrass (Echinochloa crus-galli); assay: Test C preemergence, visual plant response rating
How it was run: as §2

kochia (Bassia scoparia) [15] = assay: Test C preemergence, visual plant response rating
How it was run: as §2

[16] = tested on: foxtail, giant (giant foxtail, Setaria faberi); assay: Test C preemergence, visual plant response rating
How it was run: as §2

[17] = tested on: ragweed (common ragweed, Ambrosia artemisiifolia); assay: Test C preemergence, visual plant response rating
How it was run: as §2

[18] = tested on: pigweed (Amaranthus retroflexus); assay: Test C preemergence, visual plant response rating
How it was run: as §2

[19] = Test C, postemergence, 125 g ai/ha
[20] = Test C, 31 g ai/ha, 0 is no effect, 100 is complete control
[21] = Test C, 125 g ai/ha, 0 is no effect, 100 is complete control
[22] = Test C, postemergence, 1000 g ai/ha

Structure (SMILES)	Plant response rating, Barnyardgrass (Flood) [1]	Plant response rating, Sedge, Umbrella (Flood) [2]	Plant response rating, Ducksalad (Flood) [3]	Plant response rating, Rice (Flood) (rice (Oryza sativa))	Ryegrass, Italian plant response rating (0 to 100 scale) ([4]; Postemergence, 31 g ai/ha)	Ryegrass, Italian plant response rating (0 to 100 scale) [4, 19]	Barnyardgrass plant response rating (0 to 100 scale) ([5]; Postemergence, 31 g ai/ha)	Barnyardgrass plant response rating (0 to 100 scale) [5, 19]	Blackgrass plant response rating (0 to 100 scale) ([6]; Postemergence, 31 g ai/ha)	Blackgrass plant response rating (0 to 100 scale) [6, 19]	Kochia plant response rating (0 to 100 scale) (kochia (Bassia scoparia) [7]; Postemergence, 31 g ai/ha)	Kochia plant response rating (0 to 100 scale) (kochia (Bassia scoparia) [7]; [19])	Galium plant response rating (0 to 100 scale) ([8]; Postemergence, 31 g ai/ha)	Galium plant response rating (0 to 100 scale) [8, 19]	Corn plant response rating (0 to 100 scale) (corn (Zea mays); Postemergence, 31 g ai/ha)	Corn plant response rating (0 to 100 scale) (corn (Zea mays); [19])	Wheat plant response rating (0 to 100 scale) ([9]; Postemergence, 31 g ai/ha)	Wheat plant response rating (0 to 100 scale) [9, 19]	Foxtail, Giant plant response rating (0 to 100 scale) ([10]; Postemergence, 31 g ai/ha)	Foxtail, Giant plant response rating (0 to 100 scale) [10, 19]	also measured
CCO/N=C(/c1c(O)c(Cl)nn(C)c1=O)c1ccc(F)c2ccccc12 [Compound 211]	0	0	0	0	30	80	30	70	30	30	50	90	100	100	30	20	0	40	60	90	Ragweed plant response rating (0 to 100 scale) ([11]; Postemergence, 31 g ai/ha): 80; Ragweed plant response rating (0 to 100 scale) [11, 19]: 80; Pigweed plant response rating (0 to 100 scale) ([12]; Postemergence, 31 g ai/ha): 70; Pigweed plant response rating (0 to 100 scale) [12, 19]: 100; Ryegrass, Italian plant response rating (0 to 100 scale) [13, 20]: 30; Ryegrass, Italian plant response rating (0 to 100 scale) [13, 21]: 80; Barnyardgrass plant response rating (0 to 100 scale) [14, 20]: 50; Barnyardgrass plant response rating (0 to 100 scale) [14, 21]: 90; Kochia plant response rating (0 to 100 scale) (kochia (Bassia scoparia) [15]; [20]): 0; Kochia plant response rating (0 to 100 scale) (kochia (Bassia scoparia) [15]; [21]): 60; Foxtail, Giant plant response rating (0 to 100 scale) [16, 20]: 70; Foxtail, Giant plant response rating (0 to 100 scale) [16, 21]: 90; Ragweed plant response rating (0 to 100 scale) [17, 20]: 40; Ragweed plant response rating (0 to 100 scale) [17, 21]: 100; Pigweed plant response rating (0 to 100 scale) [18, 20]: 70; Pigweed plant response rating (0 to 100 scale) [18, 21]: 90
CON=C(c1cc(C)cc(Cl)c1)c1c(O)c(C)nn(C)c1=O [Compound 174]	0	0	0	0	60	100	60	90	30	40	70	90	100	100	10	20	0	0	50	90	Ragweed plant response rating (0 to 100 scale) ([11]; Postemergence, 31 g ai/ha): 80; Ragweed plant response rating (0 to 100 scale) [11, 19]: 90; Pigweed plant response rating (0 to 100 scale) ([12]; Postemergence, 31 g ai/ha): 60; Pigweed plant response rating (0 to 100 scale) [12, 19]: 80; Ryegrass, Italian plant response rating (0 to 100 scale) ([13]; 125 g ai/ha): 90; Ryegrass, Italian plant response rating (0 to 100 scale) [13, 20]: 80; Barnyardgrass plant response rating (0 to 100 scale) ([14]; 125 g ai/ha): 90; Barnyardgrass plant response rating (0 to 100 scale) [14, 20]: 70; Kochia plant response rating (0 to 100 scale) (kochia (Bassia scoparia) [15]; 125 g ai/ha): 80; Kochia plant response rating (0 to 100 scale) (kochia (Bassia scoparia) [15]; [20]): 20; Foxtail, Giant plant response rating (0 to 100 scale) ([16]; 125 g ai/ha): 90; Foxtail, Giant plant response rating (0 to 100 scale) [16, 20]: 70; Ragweed plant response rating (0 to 100 scale) ([17]; 125 g ai/ha): 90; Ragweed plant response rating (0 to 100 scale) [17, 20]: 60; Pigweed plant response rating (0 to 100 scale) ([18]; 125 g ai/ha): 70; Pigweed plant response rating (0 to 100 scale) [18, 20]: 20
Cc1nn(C)c(=O)c(C(=NOCC2CC2)c2cc(Cl)cc(Cl)c2Cl)c1O [Compound 293]	0	0	0	0	100	100	20	50	0	0	0	30	100	100	0	10	40	70	40	80	Ragweed plant response rating (0 to 100 scale) ([11]; Postemergence, 31 g ai/ha): 100; Ragweed plant response rating (0 to 100 scale) [11, 19]: 100; Pigweed plant response rating (0 to 100 scale) ([12]; Postemergence, 31 g ai/ha): 20; Pigweed plant response rating (0 to 100 scale) [12, 19]: 40; Ryegrass, Italian plant response rating (0 to 100 scale) [13, 20]: 30; Ryegrass, Italian plant response rating (0 to 100 scale) [13, 21]: 100; Barnyardgrass plant response rating (0 to 100 scale) [14, 20]: 0; Barnyardgrass plant response rating (0 to 100 scale) [14, 21]: 0; Kochia plant response rating (0 to 100 scale) (kochia (Bassia scoparia) [15]; [20]): 0; Kochia plant response rating (0 to 100 scale) (kochia (Bassia scoparia) [15]; [21]): 0; Foxtail, Giant plant response rating (0 to 100 scale) [16, 20]: 90; Foxtail, Giant plant response rating (0 to 100 scale) [16, 21]: 100; Ragweed plant response rating (0 to 100 scale) [17, 20]: 40; Ragweed plant response rating (0 to 100 scale) [17, 21]: 100; Pigweed plant response rating (0 to 100 scale) [18, 20]: 0; Pigweed plant response rating (0 to 100 scale) [18, 21]: 70
C#CCO/N=C(/c1c(O)cnn(C)c1=O)c1cccc2ccccc12 [Compound 221]	0	0	0	0																	Ryegrass, Italian plant response rating (0 to 100 scale) [4, 22]: 100; Barnyardgrass plant response rating (0 to 100 scale) [5, 22]: 70; Blackgrass plant response rating (0 to 100 scale) [6, 22]: 90; Kochia plant response rating (0 to 100 scale) (kochia (Bassia scoparia) [7]; [22]): 70; Galium plant response rating (0 to 100 scale) [8, 22]: 100; Corn plant response rating (0 to 100 scale) (corn (Zea mays); [22]): 20; Wheat plant response rating (0 to 100 scale) [9, 22]: 60; Foxtail, Giant plant response rating (0 to 100 scale) [10, 22]: 60; Ragweed plant response rating (0 to 100 scale) [11, 22]: 80; Pigweed plant response rating (0 to 100 scale) [12, 22]: 90; Ryegrass, Italian plant response rating (0 to 100 scale) ([13]; 1000 g ai/ha): 100; Barnyardgrass plant response rating (0 to 100 scale) ([14]; 1000 g ai/ha): 30; Kochia plant response rating (0 to 100 scale) (kochia (Bassia scoparia) [15]; 1000 g ai/ha): 60; Foxtail, Giant plant response rating (0 to 100 scale) ([16]; 1000 g ai/ha): 100; Ragweed plant response rating (0 to 100 scale) ([17]; 1000 g ai/ha): 80; Pigweed plant response rating (0 to 100 scale) ([18]; 1000 g ai/ha): 100

Reference: patent US20210045385A1, “PYRIDAZINONE-SUBSTITUTED KETOXIMES AS HERBICIDES” (FMC Corporation, priority 2018, published 2021)
